Structures are written as SMILES.

The values that follow come from patent publication US20240008473A1, “DEVICE AND METHOD TO DISTRIBUTE AIR TREATMENT SUBSTANCE” (Discovery Purchaser Corporation, priority 2020, published 2024).

The conditions of data set [1]: 25° C.; cited from earlier work.
Data set [2] can be described thus: TGA (thermogravimetric analysis) measurements on TFL technical. The data set is classed as physicochemical. As to the method:
TGA (Thermogravimetric analysis) measurements were performed on TFL technical (release profile measurements done at isothermal (55° C.) and at constant temperature increase ratio (3K/mn)), and from that, it was discovered that release kinetic at “usual” candle melting temp (50-70° C.) would not allow enough TFL release to get expected efficacy, and that TFL release is not linear. It was determined as well that release onset for TFL is around 100° C. and far higher release ratio occurs at higher temperatures. The calculated estimated ideal temperature for TFL, for outdoor use, from the TGA measurement would be around 150° C.
TGA (Thermal Gravimetric Analysis) for TFL was run, which allows characterization of the release profile of an active ingredient as a function of the temperature. […] Thus, TFL release was pretty low in the range of the “usual candle wax melting temperature”, and it was not be possible to get the needed release rate. (which is the reason why TFL was mainly burnt before being released when incorporated directly into a candle). At such a temperature range, it would hardly possible (considering the potential TFL loading into the candle and candle size) to reach a release above 2-3 mg/h which is far below our 20-25 mg/h needed for outdoor use. • Based on the TGA measurement, it can be seen that to reach the desired 25 mg/h release rate for TFL, the pod temp should be >130-140° C.
(before a typical flame temperature). […] This amount is much lower than the desired 25 mg/h release rate.

Setting [3] is: 15 mg flakes, temperature ramp 3K/min, continuous N2-flow.

On to `CC=CC1C(C(=O)OCc2c(F)c(F)c(C)c(F)c2F)C1(C)C` (centres unmarked) [Profluthrin], for which, in data set [1], the Vapor pressure was 10.3 mPa @25 °C.

`C#CCC1=C(C)C(OC(=O)C2C(C=C(C)C)C2(C)C)CC1=O` (centres unmarked) [Prallethrin]: in data set [1], the Vapor pressure was 0.6 mPa @25 °C.

On to `C#CC(OC(=O)C1C(C=C(C)C)C1(C)C)/C(C)=C/CC` (centres unmarked) [Empenthrin], for which the Vapor pressure in data set [1] was 15.4 mPa @25 °C.

Take `CC(C)=CC1C(C(=O)OCN2C(=O)C3=C(CCCC3)C2=O)C1(C)C` (centres unmarked) [Tetramethrin]: the Vapor pressure in data set [1] was 2.11 mPa @25 °C.

Consider `C#CCN1CC(=O)N(COC(=O)[C@@H]2C(C=C(C)C)C2(C)C)C1=O` (mixture of isomers) [Imiprothrin], for which the Vapor pressure in data set [1] is 1.85 mPa @25 °C.

For the molecule `C/C=C/C1C(C(=O)OCc2c(F)c(F)c(COC)c(F)c2F)C1(C)C` (centres unmarked) [Metofluthrin], in data set [1], the Vapor pressure is 1.96 mPa @25 °C.

Turning to `CC1(C)[C@H](C=C(Cl)Cl)[C@H]1C(=O)OCc1c(F)c(F)cc(F)c1F` [TFL, Transfluthrin], the Vapor pressure in data set [1] is 2 mPa @25 °C. Also, in data set [2] (setting [3]), the complete evaporation is 255 °C and the onset of evaporation entry is “around 100 °C”. Further, the “reachable release at usual candle wax melting temperature” value in data set [2] (50-80° C., TFL loaded into candle) is 2 to 3 mg/h. In addition, the “release onset for TFL” value in data set [2] (TGA on TFL technical, isothermal (55° C.) and 3K/mn ramp) was “around 100 °C”. In addition, the “active ingredient release below 100-110° C.” value in data set [2] (TGA, FIG. 9A) is listed as “very little release”. Besides, the TFL evaporation rate in data set [2] (at 55° C. candle melting temperature, TGA conditions) is recorded as less than 0.03 mg/h. Moreover, the “pod temp to reach the desired 25 mg/h release rate” value in data set [2] (based on the TGA measurement) was 130-140 °C.
